Reference: ChEMBL document CHEMBL4725357, “Elucidating the Structural Requirement of Uridylpeptide Antibiotics for Antibacterial Activity” (J Med Chem, 2020)
Converted amounts (≈) assume the structure as drawn.

Experiments:
[1] = Inhibition of Staphylococcus aureus MraY using UDPMurNAc-dansylpentapeptide as substrate incubated for 3 hrs by fluorescence method
[2] = tested on: Pseudomonas aeruginosa; experiment: Antibacterial activity against Pseudomonas aeruginosa PAO1 incubated for 18 hrs by CLSI based broth microdilution method; format: functional
[3] = Inhibition of Staphylococcus aureus MraY using UDPMurNAc-dansylpentapeptide as substrate incubated for 3 to 4 hrs by fluorescence method
[4] = tested on: Pseudomonas aeruginosa; experiment: Antibacterial activity against Pseudomonas aeruginosa incubated for 18 hrs by CLSI based broth microdilution method; format: functional

Row | SMILES | IC50 [1] [nM] | MIC [2] [µg/mL] | IC50 [3] [nM] | MIC [4] [µg/mL]
1 | C[C@@H]([C@H](NC(=O)[C@H](Cc1ccccc1)NC(=O)N[C@@H](Cc1c[nH]c2ccccc12)C(=O)O)C(=O)N/C=C1\O[C@@H](n2ccc(=O)[nH]c2=O)[C@H](O)[C@@H]1O)N(C)C(=O)[C@@H](N)Cc1cccc(O)c1 | 0.6 | 16 (≈ 17.9 µM) | – | –
2 | C[C@@H](O)[C@H](NC(=O)N[C@@H](Cc1c[nH]c2ccccc12)C(=O)O)C(=O)N[C@H](C(=O)N/C=C1\O[C@@H](n2ccc(=O)[nH]c2=O)[C@H](O)[C@@H]1O)[C@H](C)N(C)C(=O)[C@@H](N)Cc1cccc(O)c1 | 1.8 | 32 (≈ 37.7 µM) | – | –
3 | C[C@@H]([C@H](NC(=O)[C@H](CCCCN)NC(=O)N[C@@H](Cc1c[nH]c2ccccc12)C(=O)O)C(=O)N/C=C1\O[C@@H](n2ccc(=O)[nH]c2=O)[C@H](O)[C@@H]1O)N(C)C(=O)[C@@H](N)Cc1cccc(O)c1 | 1.8 | > 128 | – | –

Results, then the compound that gave them:

Row | IC50 [1] [nM] | MIC [2] [µg/mL] | IC50 [3] [nM] | MIC [4] [µg/mL] | SMILES
4 | > 500 | > 128 | – | – | C[C@@H]([C@H](NC(=O)[C@@H]1CCCN1C(=O)N[C@@H](Cc1c[nH]c2ccccc12)C(=O)O)C(=O)N/C=C1\O[C@@H](n2ccc(=O)[nH]c2=O)[C@H](O)[C@@H]1O)N(C)C(=O)[C@@H](N)Cc1cccc(O)c1
5 | – | – | 22 | – | C[C@H](N)C(=O)N(C)[C@@H](C)[C@H](NC(=O)[C@H](C)NC(=O)N[C@@H](Cc1c[nH]c2ccccc12)C(=O)O)C(=O)N/C=C1/CC(O)[C@H](n2ccc(=O)[nH]c2=O)O1 (stereo partly drawn)
6 | 4.7 | – | – | 32 (≈ 36.7 µM) | C[C@@H]([C@H](NC(=O)[C@H](CC[S+](C)[O-])NC(=O)N[C@@H](Cc1cccc(O)c1)C(=O)O)C(=O)N/C=C1\O[C@@H](n2ccc(=O)[nH]c2=O)[C@H](O)[C@@H]1O)N(C)C(=O)[C@@H](N)Cc1cccc(O)c1 (stereo partly drawn)
7 | 1.6 | 128 (≈ 150 µM) | – | – | C[C@@H]([C@H](NC(=O)[C@H](CS)NC(=O)N[C@@H](Cc1c[nH]c2ccccc12)C(=O)O)C(=O)N/C=C1\O[C@@H](n2ccc(=O)[nH]c2=O)[C@H](O)[C@@H]1O)N(C)C(=O)[C@@H](N)Cc1cccc(O)c1
